Consider 13 compounds from publication PMC12373729 (Scientific Reports, 2025).

“Also recorded” adds a separate entry of the source. Structures can show the parent of a compound that is named as a salt. Where two headings read alike, the source gives them in different places.

In data set [1] the test system is SARS-CoV-2. Kind of data set: microbe, parasite or virus in culture. It counts as cell-based.
The next data set is described as follows: in vitro. The conditions noted are these: African green monkey.
The test system of data set [2] is Vero E6 cells.
Data set [3] concerns Vero E6 cells. Kind of data set: Cell viability / 50% cytotoxic concentration, EZ-Cytox kit. As to conditions: Vero E6 cells, 1 nM–100 µM, 2 days of treatment; Table S2.
Assay in data set [4]: as above
As to conditions: African green monkey, CC50, Vero E6 cells.

The conditions of data set [5]: all patients, clinical settings; cited from earlier work.
The subject of a further data set is CHIKV nsP2 protease. On the set-up: method as in Cardoso et al. 43, 44. As to conditions: ref Cardoso et al. 43, 44; cited from earlier work.
A further data set relates to ZIKV protease. Set-up: method as in Cardoso et al. 43, 44. As to conditions: competitive inhibition; ref Cardoso et al. 43, 44; cited from earlier work.
For the next data set, the system named is YFV protease. As to conditions: competitive inhibition; ref Cardoso et al. 43, 44; cited from earlier work.
The subject of data set [6] is SARS-CoV-2. The conditions noted are these: cited from earlier work.
Data set [7] deals with SARS-CoV-2 papain-like protease. The conditions noted are these: cited from earlier work.
The mark [8] stands for this setting: Severe acute respiratory syndrome coronavirus 2, Vero C1008, Vero E6 cells, MOI 0.01, compound together with virus for 2 h, titers at 48 h, Table S2, '-' = no significant antiviral effect, read-out: IC50.
Where [9] appears, read: Vero E6 cells, MOI 0.01, compound together with virus for 2 h, titers at 48 h, Table S2, '-' = no significant antiviral effect, read-out: IC50.
Setting [10] is: 1 nM–100 µM, 2 days of treatment, Table S2.
The mark [11] stands for this setting: Severe acute respiratory syndrome coronavirus 2, Vero C1008, Vero E6 cells, MOI 0.01, treatment during inoculation 2 h, then drug-free 48 h, Fig. 1, read-out: IC50.
Setting [12] is: Severe acute respiratory syndrome coronavirus 2, Vero C1008, compound added 2 h before inoculation, washed, then infected 2 h, titers 48 h post-infection, '-' = no measurable antiviral effect, read-out: IC50 Pre-infection.
The mark [13] stands for this setting: Severe acute respiratory syndrome coronavirus 2, Vero C1008, infected 2 h, washed, then medium containing compound, titers 48 h post-infection, '-' = no measurable antiviral effect, read-out: IC50 Post-infection.
Where [14] appears, read: Vero E6 cells, MOI 0.01, treatment during inoculation 2 h, then drug-free 48 h, Fig. 1, read-out: IC50.

For `N[C@@H](Cc1c[nH]c2ccc(O)cc12)C(=O)O` [5-Hydroxy-L-tryptophan (4PQ), 5-hydroxy-L-tryptophan], in the data set with SARS-CoV-2 [1] (setting [8]), the IC50 is over 100 µM. The same compound gave a CC50 at 2 days in the data set “in vitro” of over 100 µM.

Turning to `COc1cc2nc(N3CCNCC3)nc(N)c2cc1OC` [6,7-dimethoxy-2-(1-piperazinyl)-4-quinazolinamine], the 50% inhibitory concentration (IC50) in the data set on SARS-CoV-2 [1] (setting [8]) is over 100 µM. Moreover, in the data set “in vitro”, the CC50 at 2 days is over 100 µM.

Take `Nc1ncnc2nc[nH]c12` [Adenine (ADE), adenine]: the IC50 in the data set with SARS-CoV-2 [1] (setting [8]) is over 100 µM. In addition, the CC50 in the data set “in vitro” is over 100 µM.

As to `C/C1=C2/N[C@H]([C@H](CC(N)=O)[C@@]2(C)CCC(=O)NC[C@@H](C)OP(=O)(O)O[C@H]2[C@@H](O)[C@@H](n3cnc4cc(C)c(C)cc43)O[C@@H]2CO)[C@]2(C)N=C(/C(C)=C3N=C(/C=C4N=C1[C@@H](CCC(N)=O)C\4(C)C)[C@@H](CCC(N)=O)[C@]\3(C)CC(N)=O)[C@@H](CCC(N)=O)[C@]2(C)CC(N)=O.C[C@H]1O[C@@H](n2cnc3c(N)ncnc32)[C@H](O)[C@@H]1O.[Co]` [Coenzyme B12 (B1Z), coenzyme B12], the IC50 in the data set with SARS-CoV-2 [1] (setting [9]) was over 100 µM. The compound further had a CC50 in the data set on Vero E6 cells [2] of over 100 µM.

With `C/C1=C2/[N-][C@H]([C@H](CC(N)=O)[C@@]2(C)CCC(=O)NC[C@@H](C)OP(=O)([O-])O[C@H]2[C@@H](O)[C@@H](n3cnc4cc(C)c(C)cc43)O[C@@H]2CO)[C@]2(C)N=C(/C(C)=C3N=C(/C=C4N=C1[C@@H](CCC(N)=O)C\4(C)C)[C@@H](CCC(N)=O)[C@]\3(C)CC(N)=O)[C@@H](CCC(N)=O)[C@]2(C)CC(N)=O.[Co+3].[OH-]` [Hydroxocobalamin (HPA), hydroxocobalamin], in the data set on SARS-CoV-2 [1] (setting [9]), the half-inhibitory concentration (IC50) was over 100 µM. In the data set on Vero E6 cells [3], this compound gave a CC50 of over 100 µM.

With `O=c1[nH]cnc2nc[nH]c12` [Hypoxanthine (HPA), hypoxanthine], in the data set with SARS-CoV-2 [1] (setting [8]), the IC50 is over 100 µM. In data set [4] (setting [10]), this compound registered a CC50 at 2 days of over 100 µM.

In the case of `NC[C@@H]1O[C@H](O[C@H]2[C@@H](O)[C@H](O[C@@H]3[C@@H](O)[C@H](N)C[C@H](N)[C@H]3O[C@H]3O[C@H](CN)[C@@H](O)[C@H](O)[C@H]3N)O[C@@H]2CO)[C@H](N)[C@@H](O)[C@@H]1O` [Neomycin solution (NMY), neomycin solution], the IC50 with SARS-CoV-2 [1] (setting [9]) is over 100 µM. Moreover, in the data set on Vero E6 cells [3], the CC50 was over 100 µM.

Regarding `CCC(CC)COC(=O)[C@H](C)N[P@](=O)(OC[C@H]1O[C@@](C#N)(c2ccc3c(N)ncnn23)[C@H](O)[C@@H]1O)Oc1ccccc1` [Remdesivir], the IC50 is 25.8 µM in the data set with SARS-CoV-2 [1] (setting [11]), under 6.11 µM with SARS-CoV-2 [1] (setting [12]), 3.47 µM with SARS-CoV-2 [1] (setting [13]) and 25.8 µM with SARS-CoV-2 [1] (setting [14]). Further, the CC50 at 2 days in [4] (0–100 μM, Table S3) is 98.9 µM; in data set [4] (setting [10]) it was over 100 µM. The “patients with elevated liver enzymes” value in [5] is 35%.

Turning to `Nc1ncnc2c1ncn2[C@@H]1O[C@H](CSCC[C@H](N)C(=O)O)[C@@H](O)[C@H]1O` [S-Adenosyl-L-homocysteine (SAH), S-adenosyl-l-homocysteine], the IC50 in the data set on SARS-CoV-2 [1] (setting [9]) is over 100 µM. In addition, in the data set on Vero E6 cells [3], the CC50 is over 100 µM.

With `Nc1ncnc2c1ncn2[C@@H]1O[C@@H]2COP(=O)(O)O[C@H]3[C@@H](O)[C@H](n4cnc5c(N)ncnc54)O[C@@H]3COP(=O)(O)O[C@H]2[C@H]1O` [c-di-AMP sodium salt (2BA), c-di-AMP sodium salt], the IC50 in the data set on SARS-CoV-2 [1] (setting [9]) is over 100 µM. Further, in the data set on Vero E6 cells [2], the CC50 was over 100 µM.

Regarding `Nc1nc2c(ncn2[C@@H]2O[C@@H]3COP(=O)(O)O[C@H]4[C@@H](O)[C@H](n5cnc6c(N)ncnc65)O[C@@H]4COP(=O)(O)O[C@H]3[C@H]2O)c(=O)[nH]1` [cGAMP sodium salt], in the data set with SARS-CoV-2 [1] (setting [9]), the IC50 is over 100 µM. In addition, the CC50 in the data set on Vero E6 cells [3] was over 100 µM.

Turning to `Cc1cc2nc3c(=O)[nH]c(=O)nc-3n(C[C@H](O)[C@H](O)[C@H](O)COP(=O)(O)O)c2cc1C` [riboflavin 5′-monophosphate sodium salt hydrate], the IC50 is 59.4 µM in the data set on SARS-CoV-2 [1] (setting [8]); over 100 µM in the data set with SARS-CoV-2 [1] (setting [12]); 59.4 µM in the data set with SARS-CoV-2 [1] (Severe acute respiratory syndrome coronavirus 2, Vero C1008, compound and virus simultaneously for 2 h, washed, titers 48 h post-infection, read-out: IC50 During infection); over 100 µM with SARS-CoV-2 [1] (setting [13]). Further, the CC50 in the data set with Vero E6 cells [2] (African green monkey, 2 days) is over 100 µM. The CC50 at 2 days in “in vitro” is 98.9 µM.

As to `Cc1cc2nc3c(=O)[nH]c(=O)nc-3n(C[C@H](O)[C@H](O)[C@H](O)CO)c2cc1C` [riboflavin], the IC50 with SARS-CoV-2 [1] (setting [11]) and in the data set with SARS-CoV-2 [1] (setting [14]) was 59.4 µM in each case. In addition, the “antiviral effect, treatment post-infection” value in the data set on SARS-CoV-2 [1] (Vero E6 cells, 2 h post-infection, in words) was “no measurable antiviral effects; also recorded: no effect”. In addition, the “antiviral effect, treatment prior to infection” value in the data set with SARS-CoV-2 [1] (Vero E6 cells, 2 h prior to infection, in words) is reported as “no measurable antiviral effects; also recorded: no effect”. Besides, in the data set on SARS-CoV-2 [1] (Vero E6 cells, in words), the “antiviral effect, treatment during viral inoculation” value is listed as “significant inhibition; also recorded: significantly reduced viral replication”. The “effect on viral replication when added to the culture medium after viral inoculation” value in the data set with SARS-CoV-2 [1] (drug-containing media for 48 h, Supplementary Fig. S1, in words) is recorded as “additional inhibitory effects on viral replication were observed”. Moreover, the “activity against CHIKV nsP2 protease” value in the data set on CHIKV nsP2 protease is recorded as “potent activity”. Further, the “IC50, ZIKV protease” value with ZIKV protease was “medium micromolar range”. In data set [4] (text and Fig. 1 (Fig. 1: 2 h treatment, then drug-free media 48 h)), the CC50 at 2 days is over 100 µM. For the same compound, the “IC50, YFV protease” value in the data set on YFV protease is “medium micromolar range”. Besides, the “effect on viral replication in cellular models” value in the data set with SARS-CoV-2 [6] is given as “fails to block viral replication”. Besides, in data set [7], the “concentration inhibiting SARS-CoV-2 papain-like protease in vitro” value was over 50 µM. Besides, in data set [7] (high concentrations, ref 2 (supplement)), the “concentration inhibiting viral papain-like protease (PLpro)” value was over 50 µM.
